Assay results: patent US9150568B2, “Compositions and methods for modulating FXR” (NOVARTIS AG, priority 2010, dated 2015)

Target: T1, human Farnesoid X Receptor (FXR) ligand binding domain (GST-FXR LBD) (Homo sapiens, UniProt Q96RI1)
T1 construct: purchased Invitrogen
T1 sequence (Q96RI1 193-472 isoform Q96RI1-2): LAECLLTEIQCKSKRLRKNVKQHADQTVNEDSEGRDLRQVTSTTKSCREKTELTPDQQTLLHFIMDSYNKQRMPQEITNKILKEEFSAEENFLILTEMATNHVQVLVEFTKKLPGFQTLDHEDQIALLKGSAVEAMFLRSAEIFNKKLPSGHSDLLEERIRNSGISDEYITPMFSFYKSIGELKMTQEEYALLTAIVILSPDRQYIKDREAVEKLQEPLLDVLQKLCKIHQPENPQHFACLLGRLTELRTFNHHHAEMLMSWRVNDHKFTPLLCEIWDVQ
Test: Human GST-FXR LBD co-activator interaction assay (HTRF)
Format: biochemical
Settings: GST-FXR LBD / biotin-SRC-1 peptide FRET; response relative to GW4064; read-out: FXR Co-activator interaction assay (EC50)
Excerpt: Human GST-FXR LBD Co-activator interaction Assay. The FXR HTRF assay is a biochemical assay measuring the interaction between FXR and a coactivator protein (SRC1). The ligand-induced interaction with a coactivator protein is a critical step in transcriptional activation by FXR. Thus, this is an assay designed to measure FXR agonist activity of compounds.
The ligand-dependent interaction between GST-FXR LBD and a peptide derived from Steroid Receptor Coactivator-1 (SRC-1) was monitored by Fluorescence Resonance Energy Transfer (FRET). […] Test compounds (in DMSO solution) and detection reagents (anti-GST-Cryptate labeled antibody and Streptavidin-XL665 conjugate; CisBio) were added in assay buffer containing 50 mM KF.
A negative control (without Streptavidin-XL665) was run with each assay and represented the background fluorescence. A reference FXR agonist, GW4064, was included in each experiment as positive control. The efficacy of each test compound was compared to that of GW4064. At each concentration, the relative activity of the test compound was expressed as Response %=(Rsample−RDMSO)/(Rpositive−RDMSO), where Rsample is the HTRF response (expressed in Delta F %) for the test compound, Rpositive is the maximal response for GW4064 at saturating concentrations, and RDMSO is the response for DMSO control. The EC50 values were calculated using GraphPad Prism (GraphPad Software) using non-linear regression curve fit (log(agonist) vs. response—variable slope (four parameters)).

**Q.** For `O=C(O)c1cc(F)c2nc(N3C4CC[C@H]3C[C@H](OCc3c(C5CC5C(F)(F)F)noc3C3CC3)C4)sc2c1` (mixture of isomers) [Example 11], which EC50 is on record?
**A.** 30 nM

**Q.** `O=C(O)c1cc(F)c2nc(N3C4CC[C@H]3CC(OCc3c(-c5ccccc5C(F)(F)F)noc3C3CC3)C4)sc2c1` (stereo in doubt) [Example 1-2B, 2-[3-({5-cyclopropyl-3-[2-(trifluoromethyl)phenyl]-1,2-oxazol-4-yl}methoxy)-8-azabicyclo[3.2.1]octan-8-yl]-4-fluoro-1,3-benzothiazole-6-carboxylic acid] was tested. Which EC50 did it give?
**A.** 0.25 nM

**Q.** `O=C(O)c1ccc2nc(N3C4CC[C@H]3C[C@H](OCc3c(C5CCCCC5C(F)(F)F)noc3C3CC3)C4)sc2c1` (stereo in doubt) [Example 7B, 2-(3-((5-cyclopropyl-3-((trans)-2-(trifluoromethyl)cyclohexyl)isoxazol-4-yl)methoxy)-8-azabicyclo[3.2.1]octan-8-yl)benzo[d]thiazole-6-carboxylic acid] was tested. Which EC50 did it give?
**A.** 16 nM

**Q.** For `COC(=O)c1ccc(N2C3CC[C@H]2CC(OCc2c(-c4ccccc4OC(F)(F)F)noc2C2CC2)C3)c(F)c1` (stereo in doubt) [Example 23A, Methyl 4-(3-((5-cyclopropyl-3-(2-(trifluoromethoxy)phenyl)isoxazol-4-yl)methoxy)-8-azabicyclo[3.2.1]octan-8-yl)-3-fluorobenzoate], which EC50 is on record?
**A.** 6 nM

**Q.** With `O=C(O)c1ccc(N2C3CC[C@H]2CC(OCc2c(-c4ccccc4OC(F)(F)F)noc2C2CC2)C3)c(F)c1` (stereo in doubt) [Example 23B, 4-(3-((5-cyclopropyl-3-(2-(trifluoromethoxy)phenyl)isoxazol-4-yl)methoxy)-8-azabicyclo[3.2.1]octan-8-yl)-3-fluorobenzoic acid] as the molecule, how does the EC50 read?
**A.** 4 nM

**Q.** With `Fc1cc(-c2nn[nH]n2)ccc1N1C2CC[C@H]1CC(OCc1c(-c3ccccc3OC(F)F)noc1C1CC1)C2` (stereo in doubt) [Example 26B, 5-cyclopropyl-3-(2-(difluoromethoxy)phenyl)-4-(((8-(2-fluoro-4-(2H-tetrazol-5-yl)phenyl)-8-azabicyclo[3.2.1]octan-3-yl)oxy)methyl)isoxazole] as the molecule, how does the EC50 read?
**A.** 0.3 nM

**Q.** For `O=C(O)c1cn2nc(N3C4CC[C@H]3CC(OCc3c(-c5ccccc5OC(F)(F)F)noc3C3CC3)C4)ccc2n1` (stereo in doubt) [Example 31-1, 6-(3-((5-Cyclopropyl-3-(2-(trifluoromethoxy)phenyl)isoxazol-4-yl)methoxy)-8-azabicyclo[3.2.1]octan-8-yl)imidazo[1,2-b]pyridazine-2-carboxylic acid], which EC50 is on record?
**A.** 12 nM

**Q.** Which EC50 does the source give for `O=C(O)c1cnc2cc(N3C4CC[C@H]3CC(OCc3c(-c5ccccc5OC(F)(F)F)noc3C3CC3)C4)ccn12` (stereo in doubt) [Example 32-1, 7-(3-((5-cyclopropyl-3-(2-(trifluoromethoxy)phenyl)isoxazol-4-yl)methoxy)-8-azabicyclo[3.2.1]octan-8-yl)imidazo[1,2-a]pyridine-3-carboxylic acid] here?
**A.** 3 nM

**Q.** How did the EC50 turn out when `COC(=O)c1cc(F)c2nc(N3C4CC[C@H]3CC(OCc3c(-c5ccccc5OC(F)(F)F)noc3C3CC3)C4)sc2c1` (stereo partly drawn) [Example 1-1A, Methyl 2-(3-((5-cyclopropyl-3-(2-(trifluoromethoxy)phenyl)isoxazol-4-yl)methoxy)-8-azabicyclo[3.2.1]octan-8-yl)-4-fluorobenzo[d]thiazole-6-carboxylate] was run?
**A.** 14 nM

**Q.** Which EC50 does the source give for `COC(=O)c1cc(F)c2nc(N3C4CC[C@H]3CC(OCc3c(-c5ccccc5C(F)(F)F)noc3C3CC3)C4)sc2c1` (stereo partly drawn) [Example 1-2A] here?
**A.** 28 nM

**Q.** For `COc1cc(C(=O)O)cc2sc(N3C4CC[C@H]3CC(OCc3c(-c5ccccc5OC(F)(F)F)noc3C3CC3)C4)nc12` (stereo partly drawn) [Example 2-1B, 2-(3-((5-cyclopropyl-3-(2-(trifluoromethoxy)phenyl)isoxazol-4-yl)methoxy)-8-azabicyclo[3.2.1]octan-8-yl)-4-methoxybenzo[d]thiazole-6-carboxylic acid], which EC50 is on record?
**A.** 0.17 nM

**Q.** For `COc1cc(C(=O)O)cc2sc(N3C4CC[C@H]3CC(OCc3c(-c5ccccc5C(F)(F)F)noc3C3CC3)C4)nc12` (stereo partly drawn) [Example 2-2B], which EC50 is on record?
**A.** 3 nM

**Q.** With `CCOC(=O)c1ccc2nc(N3C4CC[C@H]3CC(OCc3c(-c5ccccc5OC(F)(F)F)noc3C3CC3)C4)sc2c1` (stereo partly drawn) [Example 3A, ethyl 2-(3-((5-cyclopropyl-3-(2-(trifluoromethoxy)phenyl)isoxazol-4-yl)methoxy)-8-azabicyclo[3.2.1]octan-8-yl)benzo[d]thiazole-6-carboxylate] as the molecule, how does the EC50 read?
**A.** 20 nM

**Q.** For `O=C(O)c1ccc2nc(N3C4CC[C@H]3CC(OCc3c(-c5ccccc5OC(F)(F)F)noc3C3CC3)C4)sc2c1` (stereo partly drawn) [Example 3B], which EC50 is on record?
**A.** 0.74 nM

**Q.** How did the EC50 turn out when `CC(C)(O)c1ccc2nc(N3C4CC[C@H]3CC(OCc3c(-c5ccccc5OC(F)(F)F)noc3C3CC3)C4)sc2c1` (stereo partly drawn) [Example 4, 2-(2-(3-((5-cyclopropyl-3-(2-(trifluoromethoxy)phenyl)isoxazol-4-yl)methoxy)-8-azabicyclo[3.2.1]octan-8-yl)benzo[d]thiazol-6-yl)propan-2-ol] was run?
**A.** 22 nM

**Q.** Which EC50 does the source give for `NC(=O)c1cc(F)c2nc(N3C4CC[C@H]3C[C@H](OCc3c(-c5ccccc5OC(F)(F)F)noc3C3CC3)C4)sc2c1` [Example 5-1] here?
**A.** 7.6 nM

**Q.** Which EC50 does the source give for `NC(=O)c1ccc(N2C3CC[C@H]2C[C@H](OCc2c(-c4ccccc4OC(F)(F)F)noc2C2CC2)C3)nc1` [Example 5-2] here?
**A.** 3.8 nM

**Q.** `Cc1cc(C(N)=O)nc(N2C3CC[C@H]2C[C@H](OCc2c(-c4ccccc4OC(F)F)noc2C2CC2)C3)n1` [Example 5-3] was tested. Which EC50 did it give?
**A.** 20 nM

**Q.** How did the EC50 turn out when `CCOC(=O)c1ccc2nc(N3C4CC[C@H]3C[C@H](OCc3c(-c5ccccc5C(F)(F)F)noc3C3CC3)C4)sc2c1` [Example 6-1A] was run?
**A.** 63 nM

**Q.** `O=C(O)c1ccc2nc(N3C4CC[C@H]3C[C@H](OCc3c(-c5ccccc5C(F)(F)F)noc3C3CC3)C4)sc2c1` [Example 6-1B] was tested. Which EC50 did it give?
**A.** 0.67 nM

**Q.** For `CCOC(=O)c1ccc2nc(N3C4CC[C@H]3C[C@H](OCc3c(-c5ccccc5OC(F)F)noc3C3CC3)C4)sc2c1` [Example 6-2A], which EC50 is on record?
**A.** 51 nM

**Q.** Which EC50 does the source give for `O=C(O)c1ccc2nc(N3C4CC[C@H]3C[C@H](OCc3c(-c5ccccc5OC(F)F)noc3C3CC3)C4)sc2c1` [Example 6-2B] here?
**A.** 0.36 nM

**Q.** For `COC(=O)c1cc(F)c2nc(N3C4CC[C@H]3C[C@H](OCc3c(-c5ccccc5OC(F)F)noc3C3CC3)C4)sc2c1` [Example 6-3A], which EC50 is on record?
**A.** 12 nM

**Q.** With `O=C(O)c1cc(F)c2nc(N3C4CC[C@H]3C[C@H](OCc3c(-c5ccccc5OC(F)F)noc3C3CC3)C4)sc2c1` [Example 6-3B] as the molecule, how does the EC50 read?
**A.** 0.27 nM

**Q.** With `COc1cc(C(=O)O)cc2sc(N3C4CC[C@H]3C[C@H](OCc3c(-c5ccccc5OC(F)F)noc3C3CC3)C4)nc12` [Example 6-4] as the molecule, how does the EC50 read?
**A.** 0.18 nM

**Q.** `CCOC(=O)c1ccc2nc(N3C4CC[C@H]3C[C@H](OCc3c(-c5c(F)cccc5F)noc3C3CC3)C4)sc2c1` [Example 6-5A] was tested. Which EC50 did it give?
**A.** 3.8 nM

**Q.** With `O=C(O)c1ccc2nc(N3C4CC[C@H]3C[C@H](OCc3c(-c5c(F)cccc5F)noc3C3CC3)C4)sc2c1` [Example 6-5B] as the molecule, how does the EC50 read?
**A.** 5.6 nM

**Q.** Which EC50 does the source give for `COC(=O)c1cc(OC)c2nc(N3C4CC[C@H]3C[C@H](OCc3c(-c5c(F)cccc5F)noc3C3CC3)C4)sc2c1` [Example 6-6A] here?
**A.** 14 nM

**Q.** How did the EC50 turn out when `COc1cc(C(=O)O)cc2sc(N3C4CC[C@H]3C[C@H](OCc3c(-c5c(F)cccc5F)noc3C3CC3)C4)nc12` [Example 6-6B] was run?
**A.** 0.3 nM

**Q.** For `COC(=O)c1cc(F)c2nc(N3C4CC[C@H]3C[C@H](OCc3c(-c5c(F)cccc5F)noc3C3CC3)C4)sc2c1` [Example 6-7A], which EC50 is on record?
**A.** 14 nM

**Q.** How did the EC50 turn out when `O=C(O)c1cc(F)c2nc(N3C4CC[C@H]3C[C@H](OCc3c(-c5c(F)cccc5F)noc3C3CC3)C4)sc2c1` [Example 6-7B] was run?
**A.** 0.58 nM

**Q.** How did the EC50 turn out when `O=C(O)c1cc(F)c2nc(N3C4CC[C@H]3C[C@H](OCc3c(C5CCCCC5C(F)(F)F)noc3C3CC3)C4)sc2c1` (stereo partly drawn) [Example 8-1] was run?
**A.** 4 nM

**Q.** Which EC50 does the source give for `COc1cc(C(=O)O)cc2sc(N3C4CC[C@H]3C[C@H](OCc3c(C5CCCCC5C(F)(F)F)noc3C3CC3)C4)nc12` (stereo partly drawn) [Example 8-2] here?
**A.** 2.4 nM

**Q.** Which EC50 does the source give for `CC1(C)CCC(c2noc(C3CC3)c2CO[C@@H]2CC3CC[C@@H](C2)N3c2nc3ccc(C(=O)O)cc3s2)CC1` [Example 8-3] here?
**A.** 18 nM

**Q.** How did the EC50 turn out when `CC1(C)CCC(c2noc(C3CC3)c2CO[C@@H]2CC3CC[C@@H](C2)N3c2nc3c(F)cc(C(=O)O)cc3s2)CC1` [Example 8-4] was run?
**A.** 8.9 nM

**Q.** Which EC50 does the source give for `O=C(O)c1cnc(N2C3CC[C@H]2C[C@H](OCc2c(C4CCCCC4C(F)(F)F)noc2C2CC2)C3)cn1` (stereo partly drawn) [Example 8-5B] here?
**A.** 110 nM

**Q.** Which EC50 does the source give for `Cc1cc(C(=O)O)nc(N2C3CC[C@H]2C[C@H](OCc2c(C4CCCCC4C(F)(F)F)noc2C2CC2)C3)n1` (stereo partly drawn) [Example 8-6B] here?
**A.** 100 nM

**Q.** For `Cc1cc(C(=O)O)nc(N2C3CC[C@H]2C[C@H](OCc2c(C4CCCCC4)noc2C2CC2)C3)n1` [Example 8-7B], which EC50 is on record?
**A.** 130 nM

**Q.** For `O=C(O)c1cc(F)c2nc(N3C4CC[C@H]3C[C@H](OCc3c(C5CCCCC5)noc3C3CC3)C4)sc2c1` [Example 9-1], which EC50 is on record?
**A.** 5 nM
